This is an account of results in ChEMBL document CHEMBL2163248, “Classification of inhibitors of hepatic organic anion transporting polypeptides (OATPs): influence of protein expression on drug-drug interactions” (J Med Chem, 2012).

For data set [1], the target named is T1, Solute carrier organic anion transporter family member 2B1 (Homo sapiens, UniProt O94956).
T1 sequence (O94956 whole entry): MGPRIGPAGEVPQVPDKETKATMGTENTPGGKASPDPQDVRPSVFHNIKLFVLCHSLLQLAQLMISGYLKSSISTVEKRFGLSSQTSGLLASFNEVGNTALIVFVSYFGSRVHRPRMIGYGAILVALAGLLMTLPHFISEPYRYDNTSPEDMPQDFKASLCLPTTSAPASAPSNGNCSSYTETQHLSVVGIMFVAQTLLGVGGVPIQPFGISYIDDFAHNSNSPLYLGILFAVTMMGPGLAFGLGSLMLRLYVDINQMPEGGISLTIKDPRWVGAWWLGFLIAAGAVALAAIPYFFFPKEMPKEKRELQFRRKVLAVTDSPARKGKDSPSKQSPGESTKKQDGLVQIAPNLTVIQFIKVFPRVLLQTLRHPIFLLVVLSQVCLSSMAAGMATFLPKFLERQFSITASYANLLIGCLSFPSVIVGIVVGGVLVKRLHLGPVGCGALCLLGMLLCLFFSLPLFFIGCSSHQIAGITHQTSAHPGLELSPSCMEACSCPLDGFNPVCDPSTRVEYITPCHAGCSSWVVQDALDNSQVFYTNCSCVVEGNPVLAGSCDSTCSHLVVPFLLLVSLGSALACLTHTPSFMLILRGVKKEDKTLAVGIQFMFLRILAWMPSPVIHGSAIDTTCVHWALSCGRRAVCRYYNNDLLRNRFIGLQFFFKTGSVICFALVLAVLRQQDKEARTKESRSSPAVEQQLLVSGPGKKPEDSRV
As to the kind of experiment: Inhibition of human liver OATP2B1 expressed in HEK293 Flp-In cells assessed as reduction in [3H]E3S uptake at 20 uM incubated for 5 mins by scintillation counting. The following applies: hek293, 5 min.

In data set [2] the target is T2, Solute carrier organic anion transporter family member 1B1 (Homo sapiens, UniProt Q9Y6L6).
T2 sequence (Q9Y6L6 whole entry): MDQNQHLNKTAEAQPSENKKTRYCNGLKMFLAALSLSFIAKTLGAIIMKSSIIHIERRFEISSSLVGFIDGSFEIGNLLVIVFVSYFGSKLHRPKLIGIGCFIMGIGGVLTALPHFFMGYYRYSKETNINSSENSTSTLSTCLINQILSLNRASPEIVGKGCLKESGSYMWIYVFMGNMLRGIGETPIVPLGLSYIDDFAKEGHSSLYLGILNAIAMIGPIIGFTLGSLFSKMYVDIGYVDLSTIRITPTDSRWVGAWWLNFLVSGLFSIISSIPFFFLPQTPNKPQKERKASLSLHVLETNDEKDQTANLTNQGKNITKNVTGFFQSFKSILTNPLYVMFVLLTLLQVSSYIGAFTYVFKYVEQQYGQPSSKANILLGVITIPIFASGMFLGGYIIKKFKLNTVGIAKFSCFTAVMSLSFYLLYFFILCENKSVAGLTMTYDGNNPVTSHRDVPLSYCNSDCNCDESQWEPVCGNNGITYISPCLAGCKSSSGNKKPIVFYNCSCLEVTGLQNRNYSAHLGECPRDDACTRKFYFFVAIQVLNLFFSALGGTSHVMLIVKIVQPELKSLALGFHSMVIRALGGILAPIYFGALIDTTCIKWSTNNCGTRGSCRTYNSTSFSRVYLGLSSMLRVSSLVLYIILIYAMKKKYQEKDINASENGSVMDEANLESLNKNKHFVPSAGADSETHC
Description: Inhibition of human liver OATP1B1 expressed in HEK293 Flp-In cells assessed as reduction in E17-betaG uptake at 20 uM by scintillation counting. The following applies: hek293, 20 µM.

In data set [3] the target is T3, Solute carrier organic anion transporter family member 1B3 (Homo sapiens, UniProt Q9NPD5).
T3 sequence (Q9NPD5 whole entry): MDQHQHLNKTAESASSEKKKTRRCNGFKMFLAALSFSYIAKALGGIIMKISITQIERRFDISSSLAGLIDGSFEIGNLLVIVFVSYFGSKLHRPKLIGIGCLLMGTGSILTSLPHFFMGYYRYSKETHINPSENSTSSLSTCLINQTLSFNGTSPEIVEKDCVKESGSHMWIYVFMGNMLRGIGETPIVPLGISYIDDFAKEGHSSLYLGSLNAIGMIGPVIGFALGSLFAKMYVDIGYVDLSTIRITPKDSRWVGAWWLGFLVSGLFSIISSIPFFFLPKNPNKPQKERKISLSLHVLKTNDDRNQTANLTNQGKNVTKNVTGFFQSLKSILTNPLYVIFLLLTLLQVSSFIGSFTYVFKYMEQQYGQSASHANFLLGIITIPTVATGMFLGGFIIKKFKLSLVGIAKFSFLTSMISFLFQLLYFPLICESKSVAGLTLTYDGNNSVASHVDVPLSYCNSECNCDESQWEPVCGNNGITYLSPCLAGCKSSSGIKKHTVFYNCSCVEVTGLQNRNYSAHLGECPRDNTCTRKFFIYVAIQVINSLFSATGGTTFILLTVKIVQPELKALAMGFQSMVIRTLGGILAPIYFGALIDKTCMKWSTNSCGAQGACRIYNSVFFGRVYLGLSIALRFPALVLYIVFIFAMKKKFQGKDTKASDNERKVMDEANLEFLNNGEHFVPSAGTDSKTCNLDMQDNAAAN
Description: Inhibition of human liver OATP1B3 expressed in HEK293 Flp-In cells assessed as reduction in [3H]E17-betaG uptake at 20 uM incubated for 5 mins by scintillation counting. The following applies: hek293, 5 min.

Regarding `CC(C)c1nc(N(C)S(C)(=O)=O)nc(-c2ccc(F)cc2)c1/C=C/[C@@H](O)C[C@@H](O)CC(=O)O` [ROSUVASTATIN], the INH in data set [1] is 51.2%; in data set [2] it was 71.4%; in data set [3], 55.4%.

For `CC(C)NCC(O)c1ccc(NS(C)(=O)=O)cc1` (configuration not stated) [SOTALOL], the results for the INH in data set [1], in data set [2] and in data set [3] were 19%, 46.4% and 6.6%, respectively.

For `CC(=O)S[C@@H]1CC2=CC(=O)CC[C@]2(C)[C@H]2CC[C@@]3(C)[C@@H](CC[C@@]34CCC(=O)O4)[C@H]12` [SPIRONOLACTONE], the results for the INH in data set [1], in data set [2] and in data set [3] were -82%, 88.3% and -34.2%, respectively.

In the case of `O=C(O)c1cc(/N=N/c2ccc(S(=O)(=O)Nc3ccccn3)cc2)ccc1O` [SULFASALAZINE], the results for the INH in data set [1], in data set [2] and in data set [3] were 92.3%, 92.1% and 72.1%, respectively.

For `O=C1OC(c2ccc(O)c(S(=O)(=O)[O-])c2)(c2ccc(O)c(S(=O)(=O)[O-])c2)c2c(Br)c(Br)c(Br)c(Br)c21.[Na+].[Na+]` [SULFOBROMOPHTHALEIN SODIUM], the INH in data set [1] worked out at 69.3%; in data set [2], 94.1%; in data set [3], 74.9%.

Regarding `C[C@H](CCC(=O)NCCS(=O)(=O)O)[C@H]1CC[C@H]2[C@@H]3[C@H](O)C[C@@H]4C[C@H](O)CC[C@]4(C)[C@H]3CC[C@]12C` [TAUROCHENODEOXYCHOLATE], the figures for the INH in data set [1], in data set [2] and in data set [3] were 47.2%, 89.5% and 82.4%, respectively.

Consider `C[C@H](CCC(=O)NCCS(=O)(=O)O)[C@H]1CC[C@H]2[C@@H]3CC[C@@H]4C[C@H](O)CC[C@]4(C)[C@H]3CC[C@]12C` [TAUROLITHOCHOLIC ACID], for which the INH in data set [1] came out at 94.6%; in data set [2], 97.8%; in data set [3], 89.8%.

In the case of `C[C@H](Cn1cnc2c(N)ncnc21)OCP(=O)(O)O` [TENOFOVIR ANHYDROUS], the INH in data set [1] is listed as 23.3%; in data set [2], 18.4%; in data set [3], 33.6%.

With `CC(C)(C)c1ccc(C(O)CCCN2CCC(C(O)(c3ccccc3)c3ccccc3)CC2)cc1` (configuration not stated) [TERFENADINE], the INH in data set [1] was found to be 3.7%; in data set [2], 42.7%; in data set [3], 33.3%.

For `CN(C)[C@@H]1C(O)=C(C(N)=O)C(=O)[C@@]2(O)C(O)=C3C(=O)c4c(O)cccc4[C@@](C)(O)[C@H]3C[C@@H]12` [TETRACYCLINE], the INH in data set [1] was 51.1%; in data set [2] it was 22.1%; in data set [3], 29.5%.

Regarding `CC[N+](CC)(CC)CC` [TETRYLAMMONIUM], the INH in data set [1] worked out at 6.7%; in data set [2], 25.9%; in data set [3] it was 4.9%.

On to `Cn1c(=O)c2[nH]cnc2n(C)c1=O.O` [THEOPHYLLINE], for which the INH is given as -25.5% in data set [1], 0.8% in data set [2] and 2.5% in data set [3].

Regarding `CSc1ccc2c(c1)N(CCC1CCCCN1C)c1ccccc1S2` (configuration not stated) [THIORIDAZINE], the values for the INH in data set [1], in data set [2] and in data set [3] were 21.5%, 26.1% and 25.2%, respectively.

Turning to `S=P(N1CC1)(N1CC1)N1CC1` [THIOTEPA], the INH in data set [1] is reported as 16.2%; in data set [2], -40.3%; in data set [3] it was 0.6%.

For the molecule `Clc1ccccc1CN1CCc2sccc2C1` [TICLOPIDINE], the INH in data set [1] worked out at 23%; in data set [2], 19.4%; in data set [3], 0.2%.

On to `CCCCNC(=O)NS(=O)(=O)c1ccc(C)cc1` [TOLBUTAMIDE], for which the INH in data set [1] turned out to be 15.5%; in data set [2], 9.1%; in data set [3], 5.8%.

As for `CC[C@@]1(O)C(=O)OCc2c1cc1n(c2=O)Cc2cc3c(CN(C)C)c(O)ccc3nc2-1` [TOPOTECAN], the figures for the INH in data set [1], in data set [2] and in data set [3] were -39.2%, 36.7% and 17.3%, respectively.

With `Cc1nnc2n1-c1ccc(Cl)cc1C(c1ccccc1Cl)=NC2` [TRIAZOLAM], the INH in data set [1] is listed as -20.5%; in data set [2], 45.7%; in data set [3], 18.7%.

As for `COc1cc(Cc2cnc(N)nc2N)cc(OC)c1OC` [TRIMETHOPRIM], the INH in data set [1] is on record as 35.1%; in data set [2] it was 24.7%; in data set [3] it was 18.8%.

In the case of `CC(C)C[C@H](NC(=O)[C@@H](O)[C@H](N)Cc1ccccc1)C(=O)O` [UBENIMEX], the INH turned out to be 20.7% in data set [1], 10.9% in data set [2] and 31.8% in data set [3].

For `CC(C)[C@H](N)C(=O)OCCOCn1cnc2c(=O)[nH]c(N)nc21` [VALACYCLOVIR], the INH is -7.3% in data set [1], 8.3% in data set [2] and 6.6% in data set [3].

Consider `C/C=C/C[C@@H](C)C(=O)[C@H]1C(=O)N[C@@H](C(C)C)C(=O)N(C)CC(=O)N(C)[C@@H](CC(C)C)C(=O)N[C@@H](C(C)C)C(=O)N(C)[C@@H](CC(C)C)C(=O)N[C@@H](C)C(=O)N[C@H](C)C(=O)N(C)[C@@H](CC(C)C)C(=O)N(C)[C@@H](CC(C)C)C(=O)N(C)[C@@H](C(C)C)C(=O)N1C` [VALSPODAR], for which the INH in data set [1] came to 33.1%; in data set [2], 96.3%; in data set [3], 93.9%.

For the molecule `c1cnc2cc3c(cc2n1)[C@@H]1CNC[C@H]3C1` [VARENICLINE], the INH in data set [1] worked out at 27.3%; in data set [2], 24.7%; in data set [3], 0.8%.

Consider `CC[C@]1(O)C[C@@H]2CN(CCc3c([nH]c4ccccc34)[C@@](C(=O)OC)(c3cc4c(cc3OC)N(C)[C@H]3[C@@](O)(C(=O)OC)[C@H](OC(C)=O)[C@]5(CC)C=CCN6CC[C@]43[C@@H]65)C2)C1` [VINBLASTINE], for which the figures for the INH in data set [1], in data set [2] and in data set [3] were -9.3%, 57.6% and 54.3%, respectively.

Take `CC(=O)CC(c1ccccc1)c1c(O)c2ccccc2oc1=O` (configuration not stated) [WARFARIN]: the INH in data set [1] was 31.6%; in data set [2], 27.8%; in data set [3], -3.2%.

As for `Cc1cn([C@H]2C[C@H](N=[N+]=[N-])[C@@H](CO)O2)c(=O)[nH]c1=O` [ZIDOVUDINE], the INH came to 4.7% in data set [1], 9.5% in data set [2] and 7.1% in data set [3].

Turning to FLUPENTIXOL, the INH in data set [1] stood at 9.5%; in data set [2], 30.2%; in data set [3] it was 13.5%.

As to IVERMECTIN, the INH was found to be 39% in data set [1], 64.7% in data set [2] and 55.2% in data set [3].

NYSTATIN: the INH amounted to 23.4% in data set [1], 69.3% in data set [2] and 74.9% in data set [3].
